In publication PMC8421423, “Cellular model system to dissect the isoform-selectivity of Akt inhibitors” (Nature Communications, 2021):
Where “and” joins values, the source holds several entries; their conditions need not be identical. Identical values can stand only once. Like-named read-outs stand apart in the source and are kept apart here.

Key:
parental Ba/F3 cells = assay: CellTiter-Glo cell viability assay; type: cell-based, murine
Experimental: On day 0, cells were plated into white 384-well cell culture plates (Greiner Bio-One) using a Multidrop reagent dispenser (Thermo Fisher Scientific) at cell numbers that ensure linear and optimal luminescent signal intensity (Ba/F3myr-Akt1: 600 cells/well, Ba/F3myr-Akt2: 800 cells/well, Ba/F3myr-Akt3: 800 cells/well). […] Cell viability was analyzed on day 4 using the CellTiter-Glo Assay (Promega) as per the manufacturer’s instructions. […] All experimental points were measured in duplicates for each plate and were replicated in at least three plates.

Ba/F3^myr-Akt1 cells = assay: CellTiter-Glo cell viability assay; details: for Log ratio EC50 [Akt] / EC50 [Akt], Akt1 / Akt2: cell viability assay Ba/F3 myr-Akt cells, log units
Ba/F3^myr-Akt2 cells = assay: CellTiter-Glo cell viability assay
Ba/F3^myr-Akt3 cells = assay: CellTiter-Glo cell viability assay; details: for Log ratio EC50 [Akt] / EC50 [Akt], Akt3 / Akt2: cell viability assay Ba/F3 myr-Akt cells, log units
Akt1 [1] = biological target: T1, Akt1 (Homo sapiens, UniProt P31749); assay: STK HTRF KinEASE activity-based assay (IC50); details: for Log ratio IC50 [Akt] / IC50 [Akt], Akt1 / Akt2: biochemical activity based assay, log units
T1 sequence (P31749 whole entry): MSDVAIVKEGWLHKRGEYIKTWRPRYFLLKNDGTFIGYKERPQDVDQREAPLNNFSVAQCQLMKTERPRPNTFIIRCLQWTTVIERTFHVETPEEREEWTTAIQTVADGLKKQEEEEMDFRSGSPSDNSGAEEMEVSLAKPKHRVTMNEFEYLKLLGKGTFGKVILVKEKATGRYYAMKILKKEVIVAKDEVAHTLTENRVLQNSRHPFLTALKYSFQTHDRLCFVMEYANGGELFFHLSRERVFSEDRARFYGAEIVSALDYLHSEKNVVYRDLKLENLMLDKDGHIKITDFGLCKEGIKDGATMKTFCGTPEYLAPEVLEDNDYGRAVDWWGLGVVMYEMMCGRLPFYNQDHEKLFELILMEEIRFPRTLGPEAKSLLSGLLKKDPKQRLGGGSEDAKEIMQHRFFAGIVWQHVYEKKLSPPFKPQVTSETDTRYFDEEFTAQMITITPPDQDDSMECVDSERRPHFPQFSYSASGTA
Experimental: (§1) The biochemical half maximal inhibitory concentrations (IC50) were determined with the STK HTRF KinEASE assay (Cisbio) according to the manufactor’s instructions. Briefly: 5 µL Kinase solution and 2.5 µL inhibitor solution (8% DMSO in HTRF buffer) were incubated for 1 h before the reaction was started by addition of 2.5 µL starting solution containing ATP and substrate peptide. […] After reaction completion (Akt1: 60 min, Akt2: 20 min, Akt3: 15 min), 10 µL of stop solution were added. […] The quotient of both intensities were recorded at eight different inhibitor concentrations and data fit to a Hill 4-parameter equation with Quattro software suite (Quattro Research GmbH, Martinsried, Germany). Each reaction was performed in duplicates and at least three independent determinations of each IC50 were made.

Akt2 [2] = biological target: T2, Akt2 (Homo sapiens, UniProt P31751); assay: STK HTRF KinEASE activity-based assay (IC50)
T2 sequence (P31751 whole entry): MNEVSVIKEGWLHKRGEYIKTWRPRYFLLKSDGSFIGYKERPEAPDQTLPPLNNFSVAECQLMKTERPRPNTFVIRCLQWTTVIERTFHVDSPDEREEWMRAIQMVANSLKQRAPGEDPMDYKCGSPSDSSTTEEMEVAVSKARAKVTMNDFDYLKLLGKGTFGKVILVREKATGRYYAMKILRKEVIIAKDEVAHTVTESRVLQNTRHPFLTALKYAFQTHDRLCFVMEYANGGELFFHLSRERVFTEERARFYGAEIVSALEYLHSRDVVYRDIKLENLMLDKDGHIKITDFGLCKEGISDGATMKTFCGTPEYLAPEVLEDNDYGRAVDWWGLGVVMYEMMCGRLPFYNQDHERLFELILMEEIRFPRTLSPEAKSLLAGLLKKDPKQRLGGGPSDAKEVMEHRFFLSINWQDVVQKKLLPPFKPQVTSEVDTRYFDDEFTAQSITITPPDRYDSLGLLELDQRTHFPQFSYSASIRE
Experimental: as §1

Akt3 = Akt3 (Homo sapiens, UniProt Q9Y243); assay: STK HTRF KinEASE activity-based assay (IC50)
Sequence of Akt3 (Q9Y243 whole entry): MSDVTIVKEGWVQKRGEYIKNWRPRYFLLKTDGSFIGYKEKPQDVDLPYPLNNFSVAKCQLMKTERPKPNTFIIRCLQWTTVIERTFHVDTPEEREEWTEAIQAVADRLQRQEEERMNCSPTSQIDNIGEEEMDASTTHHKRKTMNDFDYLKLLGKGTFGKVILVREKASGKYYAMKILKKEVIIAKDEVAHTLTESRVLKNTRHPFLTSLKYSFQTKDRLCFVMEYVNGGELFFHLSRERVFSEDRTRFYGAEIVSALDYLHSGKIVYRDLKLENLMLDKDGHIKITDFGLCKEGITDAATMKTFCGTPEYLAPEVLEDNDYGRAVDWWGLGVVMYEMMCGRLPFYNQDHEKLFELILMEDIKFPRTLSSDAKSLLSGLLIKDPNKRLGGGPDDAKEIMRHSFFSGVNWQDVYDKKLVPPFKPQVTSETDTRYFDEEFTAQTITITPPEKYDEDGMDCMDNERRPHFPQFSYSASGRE
Experimental: as §1

Akt1 [3] = biological target: T1, Akt1; assay: PhosphoSens continuous fluorometric kinetic enzyme assay
Experimental: (§2) By addition of either 8 nM Akt1, 2 nM Akt2, or 5 nM Akt3 (final concentrations) the reactions were initiated. […] Afterwards the kobs-values were plotted versus the inhibitor concentrations [I] and then fit to the following hyperbolic Eq.

Akt2 [4] = biological target: T2, Akt2; assay: as above
Experimental: as §2

[5] = parental cells, single replicates, read-out: CTG BaF3, individual determinations
[6] = Mus musculus, read-out: CTG BaF3myr-Akt1, Mean, mean of replicates
[7] = read-out: CTG BaF3myr-Akt1, individual determinations, single replicates
[8] = Mus musculus, read-out: CTG BaF3myr-Akt2, Mean, mean of replicates
[9] = Mus musculus, read-out: CTG BaF3myr-Akt2, individual determinations, single replicates
[10] = read-out: CTG BaF3myr-Akt2, individual determinations, single replicates
[11] = Mus musculus, read-out: CTG BaF3myr-Akt3, Mean, mean of replicates
[12] = Mus musculus, read-out: CTG BaF3myr-Akt3, individual determinations, single replicates
[13] = read-out: CTG BaF3myr-Akt3, individual determinations, single replicates
[14] = HTRF IC50 Akt1, Mean, mean of replicates
[15] = HTRF IC50 Akt1, individual determinations, single replicates
[16] = IC50 Akt1, HTRF, ATP at KM, 1 h preincubation
[17] = HTRF IC50 Akt2, Mean, mean of replicates
[18] = HTRF IC50 Akt2, individual determinations, single replicates
[19] = IC50 Akt2, HTRF, ATP at KM, 1 h preincubation
[20] = HTRF IC50 Akt3, Mean, mean of replicates
[21] = HTRF IC50 Akt3, individual determinations, single replicates
[22] = IC50 Akt3, HTRF, ATP at KM, 1 h preincubation
[23] = Mus musculus, BaF3, parental cells, mean of replicates, read-out: CTG BaF3, Mean

Structure (SMILES): C=CC(=O)Nc1ccc2[nH]c(=O)n(C3CCN(Cc4ccc(-c5ncc(C(=O)Nc6cnn(C)c6)cc5-c5ccccc5)cc4)CC3)c2c1 [compound 13]
- EC50 (parental Ba/F3 cells; [5]): 9.1 µM and 28.8 µM and > 30 µM
- EC50 (Ba/F3^myr-Akt1 cells; [6]): 19.3 µM
- EC50 (Ba/F3^myr-Akt1 cells; Mus musculus, read-out: CTG BaF3myr-Akt1, individual determinations, single replicates): 21.3 µM
- Log ratio EC50 [Akt] / EC50 [Akt], Akt1 / Akt2 (Ba/F3^myr-Akt1 cells): 0.43
- EC50 (Ba/F3^myr-Akt1 cells; [7]): 19.5 µM and 17.1 µM
- EC50 (Ba/F3^myr-Akt2 cells; [8]): 7.18 µM
- EC50 (Ba/F3^myr-Akt2 cells; [9]): 7.17 µM
- EC50 (Ba/F3^myr-Akt2 cells; [10]): 6.22 µM and 7.66 µM
- EC50 (Ba/F3^myr-Akt3 cells; [11]): 22.6 µM
- EC50 (Ba/F3^myr-Akt3 cells; [12]): 25.8 µM
- Log ratio EC50 [Akt] / EC50 [Akt], Akt3 / Akt2 (Ba/F3^myr-Akt3 cells): -0.50
- EC50 (Ba/F3^myr-Akt3 cells; [13]): 26.5 µM and 15.6 µM
- IC50 (Akt1 [1]; [14]): 0.0976 µM
- IC50 (Akt1 [1]; [15]): 0.113 µM and 0.096 µM and 0.0844 µM
- IC50 (Akt1 [1]; [16]): 0.098 ± 0.015 µM
- Log ratio IC50 [Akt] / IC50 [Akt], Akt1 / Akt2 (Akt1 [1]): 0.27
- IC50 (Akt2 [2]; [17]): 0.0535 µM
- IC50 (Akt2 [2]; [18]): 0.0539 µM and 0.0591 µM and 0.0474 µM
- IC50 (Akt2 [2]; [19]): 0.053 ± 0.005 µM
- IC50 (Akt3; [20]): 3.54 µM
- IC50 (Akt3; [21]): 3.08 µM and 3.13 µM and 4.41 µM
- IC50 (Akt3; [22]): 3.54 ± 0.617 µM
- Ki (Akt1 [3]; Ki Akt1): 0.008 ± 0.002 µM
- Ki (Akt1 [3]; Ki Akt1, Mean, mean of replicates): 0.00812 µM
- Ki (Akt1 [3]; Ki Akt1, individual determinations, single replicates): 0.0055 µM and 0.0109 µM
- kinact/KI (Akt1 [3]; read-out: kinact /Ki Akt1): 31000 ± 11000 M⁻¹ s⁻¹
- kinact/KI (Akt1 [3]; read-out: kinact /Ki Akt1, Mean, mean of replicates): 31000 M⁻¹ s⁻¹
- kinact (Akt1 [3]; read-out: kinact Akt1): 0.000233 s⁻¹
- kinact (Akt1 [3]; read-out: kinact Akt1, individual determinations, single replicates): 0.00025 s⁻¹
- kinact Akt1, individual determinations (Akt1 [3]; single replicates): 0.012 min⁻¹ and 0.015 min⁻¹
- Ki (Akt2 [4]; Ki Akt2): 0.04 ± 0.003 µM
- Ki (Akt2 [4]; Ki Akt2, Mean, mean of replicates): 0.0408 µM
- Ki (Akt2 [4]; Ki Akt2, individual determinations, single replicates): 42.3 nM (2×) and 37.7 nM
- kinact/KI (Akt2 [4]; read-out: kinact /Ki Akt2): 8000 ± 1000 M⁻¹ s⁻¹
- kinact/KI (Akt2 [4]; read-out: kinact /Ki Akt2, Mean, mean of replicates): 7580 M⁻¹ s⁻¹
- kinact/KI (Akt2 [4]; read-out: kinact /Ki Akt2, individual determinations, single replicates): 7430 M⁻¹ s⁻¹
- kinact (Akt2 [4]; read-out: kinact Akt2): 0.000317 s⁻¹
- kinact (Akt2 [4]; read-out: kinact Akt2, Mean, mean of replicates): 0.000317 s⁻¹
- kinact (Akt2 [4]; read-out: kinact Akt2, individual determinations, single replicates): 0.000317 s⁻¹
- kinact /Ki Akt2, individual determinations (Akt2 [4]; single replicates): 0.00743
- kinact Akt2, individual determinations (Akt2 [4]; single replicates): 0.019 min⁻¹ and 0.018 min⁻¹

Structure (SMILES): C=CC(=O)Nc1ccc2[nH]c(=O)n(C3CCN(Cc4ccc(-c5ncc(Cc6ccc(N)cc6)cc5-c5ccccc5)cc4)CC3)c2c1 [compound 19]
- EC50 (parental Ba/F3 cells; [23]): 12.5 µM
- EC50 (parental Ba/F3 cells; [5]): 6.98 µM and 7.49 µM and 18.8 µM
- EC50 (Ba/F3^myr-Akt1 cells; [6]): 12.7 µM
- Log ratio EC50 [Akt] / EC50 [Akt], Akt1 / Akt2 (Ba/F3^myr-Akt1 cells): 0.64
- EC50 (Ba/F3^myr-Akt1 cells; [7]): 19.7 µM and 8.66 µM and 9.89 µM
- EC50 (Ba/F3^myr-Akt2 cells; [8]): 2.89 µM
- EC50 (Ba/F3^myr-Akt2 cells; [9]): 2.19 µM
- EC50 (Ba/F3^myr-Akt2 cells; [10]): 3.83 µM and 2.66 µM
- EC50 (Ba/F3^myr-Akt3 cells; [11]): 7.44 µM
- EC50 (Ba/F3^myr-Akt3 cells; [12]): 6.61 µM
- Log ratio EC50 [Akt] / EC50 [Akt], Akt3 / Akt2 (Ba/F3^myr-Akt3 cells): -0.41
- EC50 (Ba/F3^myr-Akt3 cells; [13]): 7.03 µM and 8.07 µM
- IC50 (Akt1 [1]; [14]): 1.8 µM
- IC50 (Akt1 [1]; [15]): 1.9 µM and 1.84 µM and 1.65 µM
- IC50 (Akt1 [1]; [16]): 1.8 ± 0.105 µM
- Log ratio IC50 [Akt] / IC50 [Akt], Akt1 / Akt2 (Akt1 [1]): 0.55
- IC50 (Akt2 [2]; [17]): 0.511 µM
- IC50 (Akt2 [2]; [18]): 0.523 µM and 0.43 µM and 0.581 µM
- IC50 (Akt2 [2]; [19]): 0.511 ± 0.062 µM
- loss of potency of the anilinic CAAI (Akt3; Akt3, biochemical IC50): 10 fold
- IC50 (Akt3; [20]): 1.51 µM
- IC50 (Akt3; [21]): 2.03 µM and 1.41 µM and 1.09 µM
- IC50 (Akt3; [22]): 1.51 ± 0.389 µM

Structure (SMILES): C=CC(=O)Nc1ccc2[nH]c(=O)n(C3CCN(Cc4ccc(-c5ncc(C(=O)Nc6ccccn6)cc5-c5ccccc5)cc4)CC3)c2c1 [compound 23]
- EC50 (parental Ba/F3 cells; Mus musculus, BaF3, CTG, parental BaF3 cell line, read-out: EC50 BaF3): > 30 µM
- EC50 (parental Ba/F3 cells; [23]): > 30 µM
- EC50 (parental Ba/F3 cells; Mus musculus, BaF3, parental cells, single replicates, read-out: CTG BaF3, individual determinations): > 30 µM
- EC50 (parental Ba/F3 cells; [5]): > 30 µM
- EC50 (Ba/F3^myr-Akt1 cells; [6]): 14.6 µM
- Log ratio EC50 [Akt] / EC50 [Akt], Akt1 / Akt2 (Ba/F3^myr-Akt1 cells): 0.72
- EC50 (Ba/F3^myr-Akt1 cells; [7]): 8.09 µM and 10.5 µM and 25.3 µM
- EC50 (Ba/F3^myr-Akt2 cells; [8]): 2.76 µM
- EC50 (Ba/F3^myr-Akt2 cells; [10]): 4.03 µM and 2.63 µM and 1.62 µM
- EC50 (Ba/F3^myr-Akt3 cells; [11]): 17.1 µM
- Log ratio EC50 [Akt] / EC50 [Akt], Akt3 / Akt2 (Ba/F3^myr-Akt3 cells): -0.79
- EC50 (Ba/F3^myr-Akt3 cells; [13]): 9.71 µM and 24.4 µM and 23.9 µM
- IC50 (Akt1 [1]; [14]): 0.13 µM
- IC50 (Akt1 [1]; [15]): 0.128 µM and 0.117 µM and 0.144 µM
- IC50 (Akt1 [1]; [16]): 0.13 ± 0.011 µM
- Log ratio IC50 [Akt] / IC50 [Akt], Akt1 / Akt2 (Akt1 [1]): -0.07
- IC50 (Akt2 [2]; [17]): 0.152 µM
- IC50 (Akt2 [2]; [18]): 0.117 µM and 0.167 µM and 0.17 µM
- IC50 (Akt2 [2]; [19]): 0.151 ± 0.025 µM
- IC50 (Akt3; [20]): 6.3 µM
- IC50 (Akt3; [21]): 3.66 µM and 8.18 µM and 7.06 µM
- IC50 (Akt3; [22]): 6.3 ± 1.92 µM
